Reference: US20240299492A1, “COMBINATION THERAPIES WITH SIRP ALPHA-BASED CHIMERIC PROTEINS” (Shattuck Labs, Inc., priority 2021, published 2024)
“Also recorded” adds a separate entry of the source.

Assays:
calreticulin (CRT) [1] = experiment: Surface expression of calreticulin in Kasumi-1 cells (flow cytometry); format: cell-based, human; conditions: 15 μM or 50 μM APR-246, overnight; FIG. 12B
Procedure: (§1) Briefly, the Kasumi-1 human acute myelocytic leukemia (AML) cells were incubated overnight in the presence of vehicle only control, 15 μM APR-246, or 50 μM APR-246. The following day, the Kasumi-1 cells were analyzed by flow cytometry for surface expression of p53 and calreticulin (CRT).

p53 = experiment: Surface expression of p53 in Kasumi-1 cells (flow cytometry); format: cell-based, human; conditions: 15 μM or 50 μM APR-246, overnight; FIG. 12A
Procedure: as §1

calreticulin (CRT) [2] = experiment: Surface expression of calreticulin in K652 cells (flow cytometry); format: cell-based, human; conditions: 1 μM, overnight; FIG. 11C
Procedure: (§2) Briefly, the K652 human chronic myelogenous leukemia cells were incubated overnight in the presence of vehicle only control, 1 μM azacitidine or 1 μM pevonedistat. The following day, the K652 cells were analyzed by flow cytometry for surface expression of CD47 or calreticulin (CRT).

annexin V = experiment: Surface expression of annexin V in Kasumi-3 cells (flow cytometry); format: cell-based, human; conditions: increasing amounts, overnight; FIG. 14A
Procedure: (§3) The surface expression of apoptosis marker […] or the […] protein calreticulin (CRT) was studied. Briefly, the Kasumi-3 cells were incubated overnight in the presence of vehicle only control, increasing amounts of azacitidine or venetoclax, or a combination of azacitidine and venetoclax. The following day, the cells were analyzed by flow cytometry for surface expression of annexin or calreticulin (CRT). […] In addition, except for very high concentrations of azacitidine and venetoclax (100 μM each), the apoptosis induced by azacitidine and venetoclax was not additive compared to corresponding single treatments (FIG. 14A). […] In addition, except for very high concentrations of azacitidine and venetoclax (100 μM each), the apoptosis induced by azacitidine and venetoclax was not additive compared to corresponding single treatments (FIG. 14B).

[3] = test system: Kasumi-3 human acute myelocytic leukemia (AML) cells; experiment: Phagocytosis of Kasumi-3 cells by human macrophages (flow cytometry): azacitidine and/or SIRPα-Fc-CD40L; format: cell-based; conditions: 0.1 pM azacitidine overnight and/or SIRPα-Fc-CD40L for 4 hours; combination p<0.0001 vs control; FIG. 2B
Procedure: (§4) In another experiment, the Kasumi-3 human acute myelocytic leukemia (AML) cells were labeled with a green fluorescent tracker and treated with vehicle alone control or 0.1 pM azacitidine overnight. The following day, the tumor cells were washed in PBS and then co-cultured with human macrophages with or without the SIRPα-Fc-CD40L chimeric protein for 4 hours at 37° C. in the presence of 5% CO2. After this incubation, the cells were harvested and treated with an anti-CD11b antibody (a macrophage marker) and were analyzed using flow cytometry. Positive phagocytosis was determined by the overlap in signals of tumor (the green fluorescent tracker) and macrophage (anti-CD11b antibody staining). A phagocytosis index was calculated by setting the maximum phagocytosis value to 1, and then normalizing all other replicates accordingly. The phagocytosis index was plotted for the indicated treatments.

A20 lymphoma cells = experiment: In vivo anti-tumor efficacy, A20 lymphoma cell allograft mouse model; design: species or system BALB/C mice; conditions: day 12; 1 mg/kg azacitidine (days 0-4), 4 mg/kg pevonedistat (MLN4924) (days 0-3), 200 μg SIRPα-Fc-CD40L (mSIRPα-Fc-CD40L; days 0, 3, 6), intraperitoneal; FIG. 13C
Procedure: The efficacy of the SIRPα-Fc-CD40L chimeric protein was evaluated in combination with an immune checkpoint inhibitor. Towards that, the ability of an anti-PD-L1 antibody and chimeric proteins to target and reduce tumor volume in vivo was determined. Briefly, BALB/C mice were inoculated with 1×10^6 A20 lymphoma cells. When tumor volumes were approximately 75 to 80 mm^3 (day 0), the mice were randomly distributed in the following treatment groups: (1) vehicle only control, (2) 200 μg of the mouse SIRPα-Fc-CD40L chimeric protein alone, (3) 100 μg an anti-PD-L1 antibody (clone 10F.9G2), and (4) a combination 200 μg of the SIRPα-Fc-CD40L chimeric protein and 100 μg the anti-PD-L1 antibody. […] Tumors were measured with electronic calipers on day 12 and plotted using the GraphPad Prism software. […]
The efficacy of the SIRPα-Fc-CD40L chimeric protein was evaluated in combination with an antimetabolite/DNA synthesis inhibitor. Towards that, the ability of cytarabine and the chimeric protein to target and reduce tumor volume in vivo was determined. […] Tumors were measured with electronic calipers on day 12 and plotted using the GraphPad Prism software. […]
The efficacy of the SIRPα-Fc-CD40L chimeric protein was evaluated in combination with a hypomethylating agent/an epigenetic regulator and/or a protein neddylation inhibitor. […]

Kasumi-3 AML cells = experiment: Phagocytosis of Kasumi-3 AML cells by human macrophages (flow cytometry): azacitidine and/or venetoclax and/or SIRPα-Fc-CD40L; format: cell-based; conditions: 50 μg/ml SIRPα-Fc-CD40L (p<0.05), 10 μM azacitidine (p<0.0001), 1 μM venetoclax (p<0.05); each combination p<0.0001; 4 hours; FIG. 14C
Procedure: Briefly, the Kasumi-3 AML cells were labeled with a green fluorescent tracker and co-cultured with human macrophages and treated with (1) vehicle alone control, (2) 50 μg/ml of the SIRPα-Fc-CD40L chimeric protein, (3) 10 μM azacitidine, (4) 50 μg/ml of the SIRPα-Fc-CD40L chimeric protein+10 μM azacitidine, (5) 1 μM venetoclax, (6) 50 μg/ml of the SIRPα-Fc-CD40L chimeric protein+1 μM venetoclax, or (7) 50 μg/ml of the SIRPα-Fc-CD40L chimeric protein+1 μM venetoclax+10 μM azacitidine. The cells were incubated at 37° C. in the presence of 5% CO2 for 4 hours. After this incubation, the cells were harvested and treated with an anti-CD11b antibody (a macrophage marker) and were analyzed using flow cytometry. Positive phagocytosis was determined by the overlap in signals of tumor (the green fluorescent tracker) and macrophage (anti-CD11b antibody staining). A phagocytosis index was calculated by setting the maximum phagocytosis value to 1, and then normalizing all other replicates accordingly. The phagocytosis index was plotted for the indicated treatments.

CD47 [4] = experiment: Surface expression of CD47 in K652 cells (flow cytometry); format: cell-based, human; conditions: 1 μM, overnight; FIG. 11A
Procedure: as §2

calreticulin (CRT) [5] = experiment: Surface expression of calreticulin in Kasumi-3 cells (flow cytometry), Example 19; format: cell-based, human; conditions: increasing amounts, overnight; FIG. 14B
Procedure: as §3

[6] = test system: K652 human chronic myelogenous leukemia (CML) cells; experiment: Phagocytosis of K652 cells by human macrophages (flow cytometry): azacitidine and/or SIRPα-Fc-CD40L; format: cell-based; conditions: 0.1 μM azacitidine overnight and/or SIRPα-Fc-CD40L for 4 hours; combination p<0.001 vs control; FIG. 2A
Procedure: as §4, with “Briefly,” for “In another experiment,”, “K652” for “Kasumi-3”, “chronic myelogenous” for “acute myelocytic”, “(CML)” for “(AML)”, “μM” for “pM”

CD47 [7] = experiment: Surface expression of CD47 in Kasumi-3 cells (flow cytometry); format: cell-based, human; conditions: 1 μM, overnight; FIG. 11B
Procedure: (§5) In another experiment, the Kasumi-3 human acute myelocytic leukemia (AML) cells were incubated overnight in the presence of vehicle only control, 1 μM pevonedistat (MLN4924) or […]. The following day, the Kasumi-3 cells were analyzed by flow cytometry for surface expression of CD47 or calreticulin (CRT).

calreticulin (CRT) [8] = experiment: Surface expression of calreticulin in Kasumi-3 cells (flow cytometry), Example 17; format: cell-based, human; conditions: 1 μM, overnight; FIG. 11D
Procedure: as §5

| Structure (SMILES) | expression of calreticulin compared to the vehicle only-treated Kasumi-1 cells (calreticulin (CRT) [1]) | expression of p53 compared to the vehicle only-treated Kasumi-1 cells (p53) | surface expression of calreticulin, a pro-phagocytic marker, compared to the vehicle only-treated K652 cells (calreticulin (CRT) [2]) | expression of annexin V (apoptosis marker) compared to the vehicle only-treated Kasumi-3 cells (annexin V) | level of phagocytosis (phagocytosis index) compared to the control Kasumi-3 cells [3] | tumor size (A20 lymphoma cells) | level of phagocytosis (phagocytosis index) compared to the vehicle only-treated Kasumi-3 cells (Kasumi-3 AML cells) | surface expression of CD47 compared to the vehicle only-treated K652 cells (CD47 [4]) | expression of calreticulin compared to the vehicle only-treated Kasumi-3 cells (calreticulin (CRT) [5]) | level of phagocytosis (phagocytosis index) compared to the control K652 cells [6] | surface expression of CD47 compared to the vehicle only-treated Kasumi-3 cells (CD47 [7]) | surface expression of calreticulin, a pro-phagocytic marker, compared to the vehicle only-treated Kasumi-3 cells (calreticulin (CRT) [8]) |
| --- | --- | --- | --- | --- | --- | --- | --- | --- | --- | --- | --- | --- |
| COCC1(CO)C(=O)C2CCN1CC2 (stereo not drawn) [APR-246] | induced the expression | dose-dependent induction | – | – | – | – | – | – | – | – | – | – |
| Nc1ncn([C@@H]2O[C@H](CO)[C@@H](O)[C@H]2O)c(=O)n1 [azacitidine] | – | – | induced the expression | induced the expression of annexin V in Kasumi-3 cells in a dose-dependent manner; also recorded: increased the expression | slight increase in the level of phagocytosis | reduction in tumor size | increased level of phagocytosis | induced the expression | induced the expression of calreticulin in Kasumi-3 cells in a dose-dependent manner; also recorded: increased the expression | increased level of phagocytosis | – | – |
| NS(=O)(=O)OC[C@@H]1C[C@@H](n2ccc3c(N[C@H]4CCc5ccccc54)ncnc32)C[C@@H]1O [pevonedistat (MLN4924), pevonedistat] | – | – | induced the expression | – | – | reduction in tumor size | – | induced the expression | – | – | induced the expression | induced the expression |
